Measurements from ChEMBL document CHEMBL1201862, “PubChem BioAssay data set” (2004).
Active and inactive are the calls of the source. Cut-off read from the data, not from the text of the source, for most assays here: actives have a measured EC50 and inactives only a lower limit.

Assays:
[1] = inhibitors of Vif binding to APOBEC3G peptide, primary screen, biochemical, TR-FRET, GST-Vif 1-94, biotin-A3G peptide, dose response retest (AID 1117319); format: functional;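 note: TR-FRET signal of purified GST-Vif binding a biotinylated A3G peptide; inhibitors lower the FRET signal by blocking Vif and A3G binding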
[2] = NIH-3T3 fibroblast cytotoxicity, dose response, cytotoxicity control, cell-based, fluorescence, Alamar Blue, secondary assay (AID 2327); format: functional;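 note: NIH-3T3 mouse fibroblasts cultured with fluconazole at 8 µg/mL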
[3] = C. albicans growth with fluconazole, confirmation, fluorescence, retest (AID 2467); format: functional, cell-based
[4] = biological target: Protein-tyrosine kinase 2-beta (Homo sapiens, UniProt Q14289);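 note: potency of inhibitors of PYK2 kinase phosphorylation of poly-GT substrate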
[5] = biological target: Nonstructural protein 1 (Influenza A virus, UniProt Q194T2); format: functional, Influenza A virus (A/California/07/2009(H1N1))
[6] = biological target: Melanocortin receptor 4 (Homo sapiens, UniProt P32245); experiment: MC4R antagonist potency on cAMP, dose response, cell-based, TR-FRET, biased antagonists (AID 602298); format: functional;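 note: antagonist potency against agonist-stimulated cAMP production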
[7] = nonselective inhibitors of cellular cAMP signaling, dose response, counter-screen for MC4R biased antagonist project, cell-based, TR-FRET cAMP detection (AID 602305); format: functional;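 note: U2OS cells stimulated with forskolin near its EC80 as the cAMP inducer; potency is for inhibition of forskolin-stimulated cAMP signaling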
[8] = biological target: Protein Tat (Human immunodeficiency virus type 1 group M subtype B (isolate HXB2)(HIV-1), UniProt P04608); format: functional;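 note: tat binding to TAR RNA read out by fluorescence polarization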
[9] = inhibitors of firefly luciferase expression or activity, dose response, H4 neuroglioma cells, luminescence (AID 1990); format: functional, cell-based
[10] = luciferase reporter signal reduction – luminescence, H4-C neuroglioblastoma cells, dose response (AID 2458); format: functional, cell-based;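 note: H4 neuroglioblastoma cells stably carrying a luciferase reporter gene fusion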
[11] = test system: BJ; experiment: cytotoxicity toward BJ-TERT fibroblasts, dose response, cell-based, RAS-independent, luminescence (AID 1933); format: functional; details: Homo sapiens
[12] = cells; format: functional, cell-based
[13] = Luminescence Cell-Based Dose Response HTS to Identify Inhibitors of 5'UTR Stem-Loop Driven Prion Protein mRNA Translation in H4 Neuroglioblastoma Cells. [Related pubchem assays: 1827 (Project Summary), 1813 (Primary HTS)]; format: functional
[14] = test system: Vero; experiment: host cell cytotoxicity of antiviral hits, dose response, cytotoxicity control for West Nile virus antiviral project, secondary assay (AID 1650); format: functional; details: Chlorocebus sabaeus
[15] = inhibitors of SNCA 5'UTR-driven reporter translation, confirmation, H4 neuroglioma cells, luminescence (AID 1988); format: functional, cell-based
[16] = test system: BJ; experiment: cells; format: functional, cell-based; details: Homo sapiens
[17] = Luminescence-based counterscreen assay for KLF5 inhibitors: dose response cell-based high throughput screening assay to identify cytotoxic compounds using the IEC-6 intestinal epithelial cell line. [Related pubchem assays: 1700 (Primary screen.), 1834 (Confirmation screen.), 1858 (Summary AID.), 1905 (Counterscreen.)]; format: functional
[18] = test system: BJ; experiment: cytotoxicity toward BJ-TERT-LT-ST fibroblasts, dose response, cell-based, RAS-independent, luminescence (AID 1935); format: functional; details: Homo sapiens;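 note: BJ fibroblasts immortalized with TERT plus LT and ST oncogenes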
[19] = cytotoxicity toward DRD oncogenic fibroblasts, dose response, cell-based, non-viral oncogenic, luminescence (AID 1934); format: functional; details: Homo sapiens
[20] = inhibitors of SNCA 5'UTR-driven translation, confirmation, luminescence, H4 neuroglioblastoma cells, dose confirmation (AID 2454); format: functional, cell-based;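 note: H4 neuroglioblastoma cells carrying an alpha-synuclein 5'UTR luciferase reporter; potency for inhibition of the luciferase signal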
[21] = cytotoxicity in HEK-293T cells, dose response, cytotoxicity control for TCR NF-kB inhibitor project, luminescence, T-cell screen hits (AID 489026); format: functional, cell-based;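 note: cells exposed to compound about 14 hours before the viability readout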
[22] = test system: Vero; experiment: cells; format: functional, cell-based; details: Chlorocebus sabaeus
[23] = test system: BJ; experiment: cytotoxicity toward Ras-transformed BJeLR fibroblasts, dose response, cell-based, alamar blue fluorescence, cherrypicked samples (AID 2631); format: functional; details: Homo sapiens;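 note: confirmatory dose-response assay in RAS-dependent BJ fibroblasts engineered with TERT, LT and ST, with cytotoxicity read by fluorescence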
[24] = test system: Vero; experiment: cells; format: functional; details: Chlorocebus sabaeus
[25] = biological target: Paired box protein Pax-8 (Homo sapiens, UniProt Q06710); experiment: inhibitors of PAX8-driven TPO luciferase reporter, dose response, RMG-I cells, cherry-pick (AID 687027); format: functional, cell-based;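 note: luciferase reporter driven by Pax8 target thyroperoxidase promoter measured by SteadyGlo luminescence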
[26] = non-specific cell cytotoxicity, dose response, cytotoxicity control for PAX8 inhibitor project, plate reader, dry powder samples (AID 743021); format: functional, cell-based
[27] = biological target: T1, RNA-binding protein pos-1 (Caenorhabditis elegans, UniProt G5EF15); experiment: inhibitors of POS-1/mex-3 RNA binding, dose response, biochemical, fluorescence polarization (AID 1964);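 note: purified POS-1 fused to maltose binding protein made in E. coli; potency of compounds blocking POS-1 binding to fluorescent RNA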
T1 sequence (G5EF15 whole entry): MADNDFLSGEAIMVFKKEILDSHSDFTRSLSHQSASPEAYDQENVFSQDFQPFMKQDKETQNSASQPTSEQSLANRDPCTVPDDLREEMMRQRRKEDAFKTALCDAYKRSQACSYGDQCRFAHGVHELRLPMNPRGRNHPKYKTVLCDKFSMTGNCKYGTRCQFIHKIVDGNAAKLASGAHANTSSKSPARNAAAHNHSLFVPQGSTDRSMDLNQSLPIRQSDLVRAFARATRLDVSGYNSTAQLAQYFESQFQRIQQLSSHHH

[28] = biological target: T2, Zinc finger protein mex-5 (Caenorhabditis elegans, UniProt Q9XUB2); experiment: MEX-5/TCR-2 RNA interaction inhibitors, dose response, biochemical, C. elegans, fluorescence polarization (AID 1960)
T2 sequence (Q9XUB2 whole entry): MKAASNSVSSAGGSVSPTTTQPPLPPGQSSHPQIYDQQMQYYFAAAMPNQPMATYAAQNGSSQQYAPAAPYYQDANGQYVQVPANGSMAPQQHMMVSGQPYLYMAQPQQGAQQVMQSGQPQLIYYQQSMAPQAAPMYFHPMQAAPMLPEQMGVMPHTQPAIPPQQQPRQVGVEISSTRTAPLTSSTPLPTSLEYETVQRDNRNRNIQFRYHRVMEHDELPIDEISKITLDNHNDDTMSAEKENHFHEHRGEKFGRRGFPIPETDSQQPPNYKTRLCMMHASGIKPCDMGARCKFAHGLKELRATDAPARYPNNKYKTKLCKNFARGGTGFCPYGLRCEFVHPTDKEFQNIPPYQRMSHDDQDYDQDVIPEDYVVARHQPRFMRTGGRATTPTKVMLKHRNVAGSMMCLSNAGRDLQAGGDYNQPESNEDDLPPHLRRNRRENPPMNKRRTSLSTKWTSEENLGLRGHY

[29] = biological target: T3, Estrogen receptor (Homo sapiens, UniProt P03372);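 note: potency for inhibiting coactivator peptide recruitment to the receptor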
T3 sequence (P03372 whole entry): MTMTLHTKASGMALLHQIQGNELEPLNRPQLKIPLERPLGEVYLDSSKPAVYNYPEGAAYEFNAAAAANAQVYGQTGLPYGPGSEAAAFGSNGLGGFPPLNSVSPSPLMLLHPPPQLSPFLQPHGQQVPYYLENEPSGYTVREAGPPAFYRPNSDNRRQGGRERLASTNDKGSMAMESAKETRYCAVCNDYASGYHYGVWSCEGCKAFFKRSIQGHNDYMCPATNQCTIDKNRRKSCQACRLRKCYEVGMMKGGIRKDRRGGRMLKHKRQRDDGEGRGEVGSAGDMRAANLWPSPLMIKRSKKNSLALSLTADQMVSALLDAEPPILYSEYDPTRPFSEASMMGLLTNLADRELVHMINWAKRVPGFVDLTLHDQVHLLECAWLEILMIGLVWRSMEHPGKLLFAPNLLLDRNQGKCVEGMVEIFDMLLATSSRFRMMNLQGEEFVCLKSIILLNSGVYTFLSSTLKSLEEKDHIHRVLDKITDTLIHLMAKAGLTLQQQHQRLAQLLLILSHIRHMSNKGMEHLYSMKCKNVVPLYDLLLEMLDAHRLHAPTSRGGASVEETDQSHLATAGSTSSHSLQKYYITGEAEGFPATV

[30] = biological target: NS3 (Hepatitis C virus, UniProt A3EZJ3); experiment: PubChem AID 2173; parameters: species or system Hepacivirus hominis
[31] = biological target: T4, Polyadenylate-binding protein 1 (Homo sapiens, UniProt P11940); experiment: PABP1 MLLE–PAM2 interaction inhibitors, dose response, miRNA deadenylation inhibitor project, biochemical, fluorescence polarization, Cy5-PAM2 peptide, secondary (AID 602260); format: functional; details: read-out: IC50_Mean
[32] = biological target: T4, Polyadenylate-binding protein 1; experiment: PABP1 MLLE–PAM2 binding inhibitor potency, dose response, biochemical, fluorescence polarization, FITC-PAM2 peptide (AID 602259); format: functional; details: read-out: IC50_Mean
[33] = cytotoxicity in A549 cells, dose response, cytotoxicity control, cell-based, CellTiter-Glo luminescence, cherry-pick (AID 743484); format: functional
[34] = HEK293T cell cytotoxicity, dose response, cytotoxicity control, CellTiter-Glo luminescence, cherry-picked samples, set 4 (AID 743441); format: functional, cell-based; details: HEK293
[35] = Luminescence Cell-Based Dose Response to Identify Activators of 5'UTR Stem-Loop Driven Prion Protein mRNA Translation in H4-C Neuroglioblastoma Cells. [Related pubchem assays: 1829 (Project Summary), 1814 (Primary HTS)]; format: functional
[36] = Luminescence Cell-Based Dose Response HTS to Identify Activators of Luciferase Translation or Activity in H4 […] Cells. [Related pubchem assays: 1829 (Project Summary), 1814 (Primary HTS)]; format: functional
[37] = test system: H4; experiment: Luminescence Cell-Based Dose Response HTS to Identify Activators of 5'UTR Stem-Loop Driven Prion Protein mRNA Translation in H4 Neuroglioblastoma Cells. [Related pubchem assays: 1829 (Project Summary), 1814 (Primary HTS)]; format: functional; details: Homo sapiens
[38] = Luminescence Cell-Based Dose Response to Identify Activators of Luciferase Translation or Activity in H4-C Neuroglioblastoma Cells. [Related pubchem assays: 1829 (Project Summary), 1814 (Primary HTS)]; format: functional
[39] = Luminescence Cell-Based Dose Confirmation to Identify Activators of 5'UTR Stem-Loop Driven Alpha-Synuclein mRNA Translation in H4 Neuroglioblastoma Cells. [Related pubchem assays: 1829 (Project Summary), 1814 (Primary HTS)]; format: functional

T4 sequence (P11940 whole entry): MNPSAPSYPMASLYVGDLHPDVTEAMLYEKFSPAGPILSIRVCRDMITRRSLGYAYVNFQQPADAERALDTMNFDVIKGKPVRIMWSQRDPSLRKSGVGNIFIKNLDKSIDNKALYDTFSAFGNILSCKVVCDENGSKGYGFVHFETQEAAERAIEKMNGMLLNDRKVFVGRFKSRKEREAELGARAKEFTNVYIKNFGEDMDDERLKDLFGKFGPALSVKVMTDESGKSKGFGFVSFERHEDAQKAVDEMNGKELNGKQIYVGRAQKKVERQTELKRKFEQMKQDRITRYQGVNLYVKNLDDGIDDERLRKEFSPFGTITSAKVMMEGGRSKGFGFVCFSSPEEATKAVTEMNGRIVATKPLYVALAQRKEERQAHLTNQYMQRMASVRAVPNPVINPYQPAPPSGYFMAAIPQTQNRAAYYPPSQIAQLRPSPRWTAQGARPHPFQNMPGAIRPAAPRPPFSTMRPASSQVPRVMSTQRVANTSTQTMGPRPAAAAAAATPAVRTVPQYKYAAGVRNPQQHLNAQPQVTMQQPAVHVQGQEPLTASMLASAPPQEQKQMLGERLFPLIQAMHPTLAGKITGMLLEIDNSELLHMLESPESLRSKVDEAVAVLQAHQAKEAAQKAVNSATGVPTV
Sequence of Melanocortin receptor 4 (P32245 whole entry): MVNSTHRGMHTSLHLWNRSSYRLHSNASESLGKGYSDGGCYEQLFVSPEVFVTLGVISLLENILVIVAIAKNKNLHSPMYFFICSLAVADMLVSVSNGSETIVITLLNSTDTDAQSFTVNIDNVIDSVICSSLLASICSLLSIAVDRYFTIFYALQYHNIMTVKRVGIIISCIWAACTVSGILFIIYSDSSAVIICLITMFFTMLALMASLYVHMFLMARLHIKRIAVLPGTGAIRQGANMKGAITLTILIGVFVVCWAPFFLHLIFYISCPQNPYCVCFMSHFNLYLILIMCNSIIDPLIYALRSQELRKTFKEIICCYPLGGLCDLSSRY
Sequence of NS3 (A3EZJ3 whole entry): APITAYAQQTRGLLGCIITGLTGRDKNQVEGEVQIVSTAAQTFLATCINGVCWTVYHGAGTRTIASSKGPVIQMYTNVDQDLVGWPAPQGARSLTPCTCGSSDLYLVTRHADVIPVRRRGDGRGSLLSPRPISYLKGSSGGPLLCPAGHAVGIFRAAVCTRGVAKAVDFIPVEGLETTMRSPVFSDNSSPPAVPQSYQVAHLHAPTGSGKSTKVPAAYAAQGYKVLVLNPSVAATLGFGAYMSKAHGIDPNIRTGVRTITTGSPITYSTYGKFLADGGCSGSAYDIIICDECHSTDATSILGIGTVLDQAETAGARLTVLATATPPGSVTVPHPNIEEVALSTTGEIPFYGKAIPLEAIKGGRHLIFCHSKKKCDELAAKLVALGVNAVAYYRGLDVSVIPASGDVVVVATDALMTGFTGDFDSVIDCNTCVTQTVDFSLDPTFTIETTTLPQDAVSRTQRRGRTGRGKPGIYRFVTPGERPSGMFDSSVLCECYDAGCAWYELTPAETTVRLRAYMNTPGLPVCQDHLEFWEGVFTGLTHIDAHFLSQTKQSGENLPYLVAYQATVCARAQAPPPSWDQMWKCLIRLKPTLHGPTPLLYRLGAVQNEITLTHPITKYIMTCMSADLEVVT
Sequence of Protein-tyrosine kinase 2-beta (Q14289 whole entry): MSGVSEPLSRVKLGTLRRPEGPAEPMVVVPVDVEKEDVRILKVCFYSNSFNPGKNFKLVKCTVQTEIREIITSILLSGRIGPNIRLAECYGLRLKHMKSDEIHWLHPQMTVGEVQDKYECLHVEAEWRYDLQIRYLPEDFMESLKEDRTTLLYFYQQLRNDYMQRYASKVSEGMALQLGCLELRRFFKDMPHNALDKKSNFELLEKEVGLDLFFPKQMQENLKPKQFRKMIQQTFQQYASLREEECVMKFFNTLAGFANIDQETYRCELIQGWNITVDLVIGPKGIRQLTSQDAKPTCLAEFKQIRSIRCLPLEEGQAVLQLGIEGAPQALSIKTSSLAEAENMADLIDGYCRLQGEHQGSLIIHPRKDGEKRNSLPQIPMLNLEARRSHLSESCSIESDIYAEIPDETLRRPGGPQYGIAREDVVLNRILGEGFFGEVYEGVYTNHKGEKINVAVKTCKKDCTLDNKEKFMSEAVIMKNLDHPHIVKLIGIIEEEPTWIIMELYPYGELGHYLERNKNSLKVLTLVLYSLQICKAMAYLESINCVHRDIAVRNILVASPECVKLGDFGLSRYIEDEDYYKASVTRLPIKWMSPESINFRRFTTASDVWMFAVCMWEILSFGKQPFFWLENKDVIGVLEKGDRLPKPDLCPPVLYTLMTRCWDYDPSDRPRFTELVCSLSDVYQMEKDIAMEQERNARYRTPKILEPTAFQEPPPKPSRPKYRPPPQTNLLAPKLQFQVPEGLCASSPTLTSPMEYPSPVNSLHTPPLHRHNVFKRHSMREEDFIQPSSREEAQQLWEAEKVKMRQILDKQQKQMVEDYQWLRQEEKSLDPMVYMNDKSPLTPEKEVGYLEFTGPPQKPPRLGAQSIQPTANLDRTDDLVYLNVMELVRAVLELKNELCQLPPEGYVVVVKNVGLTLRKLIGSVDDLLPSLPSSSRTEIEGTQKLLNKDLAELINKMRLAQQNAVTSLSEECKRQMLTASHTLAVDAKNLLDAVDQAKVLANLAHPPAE
Sequence of Paired box protein Pax-8 (Q06710 whole entry): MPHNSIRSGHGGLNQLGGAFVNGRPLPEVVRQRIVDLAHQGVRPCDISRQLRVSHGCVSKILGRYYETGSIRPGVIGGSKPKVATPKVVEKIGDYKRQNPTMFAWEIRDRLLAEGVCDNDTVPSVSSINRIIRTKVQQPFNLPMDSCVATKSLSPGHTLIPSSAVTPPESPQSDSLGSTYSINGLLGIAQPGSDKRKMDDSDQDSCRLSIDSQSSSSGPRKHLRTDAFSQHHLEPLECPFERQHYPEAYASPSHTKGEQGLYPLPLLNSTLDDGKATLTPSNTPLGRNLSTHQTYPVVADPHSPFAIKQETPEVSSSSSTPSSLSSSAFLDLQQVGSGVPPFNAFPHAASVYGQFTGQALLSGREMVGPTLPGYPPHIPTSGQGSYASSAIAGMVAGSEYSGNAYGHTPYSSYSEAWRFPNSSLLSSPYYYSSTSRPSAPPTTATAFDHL
Sequence of Protein Tat (P04608 whole entry): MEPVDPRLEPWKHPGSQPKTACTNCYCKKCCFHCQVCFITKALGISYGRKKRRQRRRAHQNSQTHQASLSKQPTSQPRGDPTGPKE
Sequence of Nonstructural protein 1 (Q194T2 whole entry): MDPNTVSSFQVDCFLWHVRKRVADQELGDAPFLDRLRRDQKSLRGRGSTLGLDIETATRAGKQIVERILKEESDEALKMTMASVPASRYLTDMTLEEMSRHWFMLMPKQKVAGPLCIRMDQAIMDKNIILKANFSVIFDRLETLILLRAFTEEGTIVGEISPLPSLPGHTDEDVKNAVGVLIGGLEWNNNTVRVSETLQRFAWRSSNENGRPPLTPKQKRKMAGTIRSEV

Q: Which IC50 [1] does the source give for COC(=O)c1ccc(-n2nnnc2SCC(=O)Nc2cc(OC)ccc2OC)cc1 here?
A: > 100 µM (active)

Q: For CCOC(=O)c1cnc2ccc(C)cc2c1Nc1ccc(N2CCOCC2)cc1, which EC50 [2] is on record?
A: 41.5 µM (active)

Q: And the EC50 [3]?
A: 1.75 µM (active)

Q: What about the IC50 [4] of the same molecule?
A: 47.7 µM (not active)

Q: And the IC50 [5]?
A: 30.7 µM (active)

Q: What about the IC50 [6] of the same molecule?
A: 19 µM (inactive)

Q: What about the IC50 [7] of the same molecule?
A: > 64.6 µM (inactive)

Q: With COc1ccc(OC)c(N/C(C)=C/C(=O)c2ccc(C)o2)c1 as the molecule, how does the IC50 [8] read?
A: > 100 µM (inconclusive)

Q: Which results are given for CCCC/N=C/[C@]12CCC(O)CC1(O)CCC1[C@@H]2CC[C@]2(C)[C@H](C3C=CC(=O)O3)CCC12O (some centres undefined)?
A: EC50 [9]: < 0.1 µM (active); EC50 [10]: 0.238 µM (active); EC50 [11]: 0.321 µM (active); EC50 [12]: 0.263 µM (active); EC50 [13]: < 0.1 µM (active); CC50 [14]: 0.96 µM (active); EC50 [15]: < 0.1 µM (active); EC50 [16]: 0.538 µM (active); IC50 [17]: > 39.8 µM (not active); EC50 [18]: 3.01 µM (inconclusive); EC50 [19]: 0.372 µM (active); EC50 [20]: 0.203 µM (active); IC50 [21]: > 80 µM (inactive); IC50 [22]: < 0.05 µM (active); EC50 [23]: 0.45 µM (active); CC50 [24]: 1.27 µM (active); AC50 [25]: 2.19 µM (active); AC50 [26]: 55.4 µM (active)

Q: Which EC50 [27] does the source give for CCOc1ccc(/C=c2\sc3nc(-c4ccco4)nn3c2=O)cc1OCC here?
A: > 300 µM (not active)

Q: And the EC50 [28]?
A: > 300 µM (not active)

Q: And the IC50 [29]?
A: > 50 µM (not active)

Q: And the IC50 [30]?
A: 24.7 µM (not active)

Q: What about the IC50 [31] of the same molecule?
A: > 66 µM (inactive)

Q: And the IC50 [32]?
A: 48.8 µM (inactive)

Q: What does the source list for COc1cc2c(cc1[N+](=O)[O-])-c1ccc([N+](=O)[O-])cc1C2?
A: AC50 [33]: 12.4 µM (active); AC50 [34]: 26.7 µM (active)

Q: For O=C(Nc1cccnc1)c1cc(-c2cc(Cl)ccc2O)n[nH]1, which EC50 [35] is on record?
A: > 12 µM (not active)

Q: And the EC50 [36]?
A: 6.15 µM (active)

Q: And the EC50 [37]?
A: 0.608 µM (active)

Q: And the EC50 [38]?
A: 0.56 µM (active)

Q: And the EC50 [39]?
A: 0.439 µM (active)
